Earlier results on 1 compound are cited in patent US20160324856A1, “USE OF SGC STIMULATORS FOR THE TREATMENT OF NEUROMUSCULAR DISORDERS” (IRONWOOD PHARMACEUTICALS, INC., priority 2014, published 2016).

The test system of data set [1] is dystrophin-deficient zebrafish.

On to `CCCc1nn(C)c2c(=O)[nH]c(-c3cc(S(=O)(=O)N4CCN(C)CC4)ccc3OCC)nc12` [sildenafil], for which the “dystrophic skeletal muscle and survival” value in data set [1] is “rescue dystrophic skeletal muscle and prolong survival”. In addition, the cardiac dynamics result with mdx mouse (mdx mice) is “improve cardiac dynamics”. For the same compound, the “muscle ischemia, injury and fatigue” value in the data set with mdx mouse (mdx mouse, after a brief bout of exercise) is “alleviate muscle ischemia, as well as injury and fatigue”.
